Data: US10047103B2, “Imidazothiadiazole and imidazopyrazine derivatives as protease activated receptor 4 (PAR4) inhibitors for treating platelet aggregation” (BRISTOL-MYERS SQUIBB COMPANY, priority 2012, dated 2018)

How the values were obtained:
[1] = target: PAR1 (Homo sapiens (Human), UniProt P25116); settings: ACS patients, phase III; cited from earlier work
[2] = test system: carotid artery thrombosis; test: Cynomolgus monkey electrolytic injury-induced carotid artery thrombosis model; format: in vivo; settings: oral, 1 to 2 hours before the experiment
From the text: The efficacy of the PAR4 antagonists of the present invention in preventing thrombosis can also be measured in a variety of in vivo assays. Exemplary mammals that can provide models of thrombosis and hemostasis to test the effectiveness of the PAR4 antagonists of the present invention as antithrombotic agents include, but are not limited to, guinea pigs and primates. Relevant efficacy models include, but are not limited to, electrolytic injury-induced carotid artery thrombosis, FeCl3-induced carotid artery thrombosis and arteriovenous-shunt thrombosis. […]
On the day of the study, compounds or vehicles were administered orally at 1 to 2 hours before the experiment. […] Blood pressure and heart rate were monitored to maintain normal vital signs.
Carotid blood flow was measured with an appropriately sized TRANSONIC® flow probe and a TRANSONIC® perivascular flowmeter (TS420 Model, Transonic Systems Inc., Ithaca, N.Y.). It was continuously recorded over a 90-min period to monitor thrombosis-induced occlusion. Integrated carotid blood flow was measured by the area under the flow-time curve. It was expressed as percent of total control carotid blood flow, which would result if control blood flow had been maintained continuously for 90 min. […]

[3] = test system: carotid artery thrombosis; test: cynomolgus monkey electrolytic injury-induced carotid artery thrombosis model; format: in vivo; settings: arterial thrombosis model in cynomolgus monkeys
[4] = test system: human washed platelets; test: Alpha-thrombin induced platelet aggregation assay; format: cell-based; settings: 0.1 h, read-out: IC50 for the inhibition of platelet aggregation
Experimental: Example D is an alpha-thrombin-induced platelet aggregation assay. Alpha-thrombin activates both PAR1 and PAR4.
Human blood was collected in ACD (85 mM tri-sodium citrate, 78 mM citric acid, 110 mM D-glucose, pH 4.4) at a ratio of 1.4 ml per 10 ml blood. PRP was isolated by centrifugation at 170 g for 14 minutes and platelets were further pelleted by centrifugation at 1300 g for 6 minutes. Platelets were washed once with 10 ml ACD containing 1 mg/ml bovine serum albumin. Platelets were resuspended at ˜2.5×10^8/ml in Tyrode's Buffer (137 mM NaCl, 2 mM KCl, 1.0 mM MgCl2, 1 mM CaCl2, 5 mM glucose, 20 mM HEPES pH 7.4).
The ability of PAR4 antagonist to inhibit platelet aggregation induced by alpha-thrombin was tested using human washed platelets. […] Aggregation was initiated by addition of 1.5 nM alpha-thrombin (Haematologic Technologies, Essex Junction, Vt.) to 300 μl of washed platelets at stirring speed of 1000 rpm. […] IC50 was calculated using vehicle control as 0% inhibition.

Sequence of PAR1 (P25116 22-425): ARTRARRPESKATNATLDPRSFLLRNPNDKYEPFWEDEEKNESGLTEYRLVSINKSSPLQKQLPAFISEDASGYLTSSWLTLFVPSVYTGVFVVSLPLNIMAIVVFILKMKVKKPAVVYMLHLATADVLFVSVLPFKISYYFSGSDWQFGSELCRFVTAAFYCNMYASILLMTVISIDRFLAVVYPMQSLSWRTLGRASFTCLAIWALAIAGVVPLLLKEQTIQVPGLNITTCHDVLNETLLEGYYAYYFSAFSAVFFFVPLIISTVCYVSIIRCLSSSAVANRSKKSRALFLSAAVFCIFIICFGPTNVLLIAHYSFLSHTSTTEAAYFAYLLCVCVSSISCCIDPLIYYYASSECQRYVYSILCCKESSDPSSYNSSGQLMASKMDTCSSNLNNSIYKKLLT

Compound	cardiovascular events [1]	risk of major bleeding [1]	antithrombotic efficacy in electrically-induced arterial thrombus model (dose response, FIG. 1C) [2]	inhibition of thrombus formation / antithrombotic efficacy [3]	IC50 [4]
CCOC(=O)N[C@@H]1CC[C@@H]2[C@@H](C1)C[C@H]1C(=O)O[C@H](C)[C@H]1[C@H]2/C=C/c1ccc(-c2cccc(F)c2)cn1 [vorapaxar]	did not significantly reduce	significantly increased	–	–	–
COc1cc(OCc2csc(-c3ccccc3)n2)c2cc(-c3cn4nc(OC)sc4n3)oc2c1 [Example 3, 2-Methoxy-6-(6-methoxy-4-((2-phenylthiazol-4-yl)methoxy)benzofuran-2-yl)imidazo[2,1-b][1,3,4]thiadiazole]	–	–	in vivo antithrombotic efficacy	antithrombotic efficacy	5 nM
